# Measured values published in ChEMBL document CHEMBL3817731, “Synthesis and investigation of novel benzimidazole derivatives as antifungal agents” (Bioorg Med Chem, 2016).
# Columns and labels:
# Type in all cases: functional
# Aspergillus nidulans = experiment: Antifungal activity against Aspergillus nidulans ATCC 38163 after 48 hrs by CLSI M38-A2 method; settings: ATCC 38163, 48 h
# Nakaseomyces glabratus = experiment: Antifungal activity against Candida glabrata ATCC 2001 after 48 hrs by CLSI M27-A3 method; settings: CBS 138, 48 h
# Candida albicans [1] = experiment: Antifungal activity against Candida albicans ATCC MYA-1237 after 48 hrs by CLSI M27-A3 method; settings: ATCC MYA-1237, 48 h
# Candida albicans [2] = experiment: Antifungal activity against Candida albicans ATCC MYA-90819 after 48 hrs by CLSI M27-A3 method; settings: ATCC MYA-90819, 48 h
# Candida albicans [3] = experiment: Antifungal activity against Candida albicans ATCC 10231 after 48 hrs by CLSI M27-A3 method; settings: ATCC 10231, 48 h
# Pichia kudriavzevii = experiment: Antifungal activity against Candida krusei ATCC 6258 after 48 hrs by CLSI M27-A3 method; settings: ATCC 6258, 48 h
# Candida albicans [4] = experiment: Antifungal activity against Candida albicans ATCC MYA-2876 after 48 hrs by CLSI M27-A3 method; settings: ATCC MYA-2876, 48 h
# Candida parapsilosis = experiment: Antifungal activity against Candida parapsilosis ATCC 22019 after 48 hrs by CLSI M27-A3 method; settings: Lodderomyces parapsilosis, ATCC 22019, 48 h
# Candida albicans [5] = experiment: Antifungal activity against Candida albicans ATCC MYA-2310 after 48 hrs by CLSI M27-A3 method; settings: ATCC MYA-2310, 48 h
# Candida albicans [6] = experiment: Antifungal activity against Candida albicans ATCC 64124 after 48 hrs by CLSI M27-A3 method; settings: ATCC 64124, 48 h
# Aspergillus flavus = experiment: Antifungal activity against Aspergillus flavus ATCC MYA-3631 after 48 hrs by CLSI M38-A2 method; settings: ATCC MYA-3631, 48 h
# Candida albicans [7] = experiment: Antifungal activity against Candida albicans ATCC MYA-1003 after 48 hrs by CLSI M27-A3 method; settings: ATCC MYA-1003, 48 h
# Aspergillus terreus = experiment: Antifungal activity against Aspergillus terreus ATCC MYA3633 after 48 hrs by CLSI M38-A2 method; settings: ATCC MYA3633, 48 h
Structure (SMILES),MIC (Aspergillus nidulans),MIC (Nakaseomyces glabratus),MIC (Candida albicans [1]),MIC (Candida albicans [2]),MIC (Candida albicans [3]),MIC (Pichia kudriavzevii),MIC (Candida albicans [4]),MIC (Candida parapsilosis),MIC (Candida albicans [5]),MIC (Candida albicans [6]),MIC (Aspergillus flavus),MIC (Candida albicans [7]),MIC (Aspergillus terreus)
CCOc1ccc(-c2nc3ccc(-c4nc5ccc(N6CCN(CC)CC6)cc5[nH]4)cc3[nH]2)cc1,15.6 µg/mL,31.2 µg/mL,15.6 µg/mL,15.6 µg/mL,15.6 µg/mL,15.6 µg/mL,15.6 µg/mL,3.9 µg/mL,15.6 µg/mL,15.6 µg/mL,> 31.2 µg/mL,> 31.2 µg/mL,15.6 µg/mL
CC[C@@H]([C@H](C)O)n1ncn(-c2ccc(N3CCN(c4ccc(OC[C@@H]5CO[C@@](Cn6cncn6)(c6ccc(F)cc6F)C5)cc4)CC3)cc2)c1=O [POSACONAZOLE],0.195 µg/mL,0.12 µg/mL,15.6 µg/mL,31.2 µg/mL,0.5 µg/mL,0.06 µg/mL,7.8 µg/mL,< 0.03 µg/mL,31.2 µg/mL,> 62.5 µg/mL,0.24 µg/mL,15.6 µg/mL,0.48 µg/mL
CCCN1CCN(c2ccc3nc(-c4ccc5nc(-c6ccc(OC)cc6)[nH]c5c4)[nH]c3c2)CC1,> 31.2 µg/mL,> 31.2 µg/mL,> 31.2 µg/mL,> 31.2 µg/mL,> 31.2 µg/mL,7.8 µg/mL,> 31.2 µg/mL,31.2 µg/mL,> 31.2 µg/mL,> 31.2 µg/mL,> 31.2 µg/mL,> 31.2 µg/mL,> 31.2 µg/mL
CCCCCN1CCN(c2ccc3nc(-c4ccc5nc(-c6ccc(OC)cc6)[nH]c5c4)[nH]c3c2)CC1,> 31.2 µg/mL,> 31.2 µg/mL,> 31.2 µg/mL,> 31.2 µg/mL,> 31.2 µg/mL,> 31.2 µg/mL,> 31.2 µg/mL,15.6 µg/mL,> 31.2 µg/mL,> 31.2 µg/mL,> 31.2 µg/mL,> 31.2 µg/mL,> 31.2 µg/mL
OC(Cn1cncn1)(Cn1cncn1)c1ccc(F)cc1F [FLUCONAZOLE],–,> 31.2 µg/mL,–,> 125 µg/mL,–,–,15.6 µg/mL,1.95 µg/mL,> 125 µg/mL,> 125 µg/mL,–,–,–
CCC(C)n1ncn(-c2ccc(N3CCN(c4ccc(OCC5COC(Cn6cncn6)(c6ccc(Cl)cc6Cl)O5)cc4)CC3)cc2)c1=O (configuration not stated) [ITRACONAZOLE],0.195 µg/mL,–,31.2 µg/mL,31.2 µg/mL,0.5 µg/mL,0.48 µg/mL,7.8 µg/mL,0.12 µg/mL,31.2 µg/mL,> 62.5 µg/mL,0.48 µg/mL,31.2 µg/mL,0.975 µg/mL
CCN1CCN(c2ccc3nc(-c4ccc5nc(-c6ccc(OC)cc6)[nH]c5c4)[nH]c3c2)CC1,> 31.2 µg/mL,7.8 µg/mL,> 31.2 µg/mL,> 31.2 µg/mL,> 31.2 µg/mL,31.2 µg/mL,> 31.2 µg/mL,7.8 µg/mL,> 31.2 µg/mL,> 31.2 µg/mL,> 31.2 µg/mL,> 31.2 µg/mL,> 31.2 µg/mL
CCCN1CCN(c2ccc3nc(-c4ccc5nc(-c6ccc(O)cc6)[nH]c5c4)[nH]c3c2)CC1,7.8 µg/mL,7.8 µg/mL,31.2 µg/mL,31.2 µg/mL,31.2 µg/mL,31.2 µg/mL,31.2 µg/mL,7.8 µg/mL,31.2 µg/mL,31.2 µg/mL,> 31.2 µg/mL,31.2 µg/mL,15.6 µg/mL
C#CCOc1ccc(-c2nc3ccc(N4CCN(C)CC4)cc3[nH]2)cc1,> 31.2 µg/mL,> 31.2 µg/mL,> 31.2 µg/mL,> 31.2 µg/mL,> 31.2 µg/mL,> 31.2 µg/mL,> 31.2 µg/mL,> 31.2 µg/mL,> 31.2 µg/mL,> 31.2 µg/mL,> 31.2 µg/mL,> 31.2 µg/mL,> 31.2 µg/mL
CCCCCCCCCCCCOc1ccc(-c2nc3ccc(-c4nc5ccc(N6CCN(C)CC6)cc5[nH]4)cc3[nH]2)cc1,> 31.2 µg/mL,> 31.2 µg/mL,> 31.2 µg/mL,> 31.2 µg/mL,> 31.2 µg/mL,> 31.2 µg/mL,> 31.2 µg/mL,> 31.2 µg/mL,> 31.2 µg/mL,> 31.2 µg/mL,> 31.2 µg/mL,> 31.2 µg/mL,> 31.2 µg/mL
CCCN1CCN(c2ccc3nc(-c4ccc5nc(-c6ccc(OCC)cc6)[nH]c5c4)[nH]c3c2)CC1,> 31.2 µg/mL,> 31.2 µg/mL,> 31.2 µg/mL,> 31.2 µg/mL,> 31.2 µg/mL,15.6 µg/mL,> 31.2 µg/mL,> 31.2 µg/mL,> 31.2 µg/mL,> 31.2 µg/mL,> 31.2 µg/mL,> 31.2 µg/mL,> 31.2 µg/mL
CCCCCN1CCN(c2ccc3nc(-c4ccc5nc(-c6ccc(OCC)cc6)[nH]c5c4)[nH]c3c2)CC1,> 31.2 µg/mL,> 31.2 µg/mL,> 31.2 µg/mL,> 31.2 µg/mL,> 31.2 µg/mL,> 31.2 µg/mL,> 31.2 µg/mL,> 31.2 µg/mL,> 31.2 µg/mL,> 31.2 µg/mL,> 31.2 µg/mL,> 31.2 µg/mL,> 31.2 µg/mL
C#CCOc1ccc(-c2nc3ccc(-c4nc5ccc(-c6nc7ccc(N8CCN(C)CC8)cc7[nH]6)cc5[nH]4)cc3[nH]2)cc1,31.2 µg/mL,31.2 µg/mL,> 31.2 µg/mL,> 31.2 µg/mL,> 31.2 µg/mL,> 31.2 µg/mL,> 31.2 µg/mL,> 31.2 µg/mL,> 31.2 µg/mL,> 31.2 µg/mL,> 31.2 µg/mL,> 31.2 µg/mL,31.2 µg/mL
CN1CCN(c2ccc3nc(-c4ccc5nc(-c6ccc(OCCO)cc6)[nH]c5c4)[nH]c3c2)CC1,15.6 µg/mL,31.2 µg/mL,> 31.2 µg/mL,> 31.2 µg/mL,> 31.2 µg/mL,7.8 µg/mL,31.2 µg/mL,15.6 µg/mL,31.2 µg/mL,> 31.2 µg/mL,31.2 µg/mL,31.2 µg/mL,15.6 µg/mL
C[C@@H](c1ncncc1F)[C@](O)(Cn1cncn1)c1ccc(F)cc1F [VORICONAZOLE],0.03 µg/mL,–,7.8 µg/mL,1.95 µg/mL,–,0.12 µg/mL,1.95 µg/mL,< 0.03 µg/mL,0.975 µg/mL,3.9 µg/mL,–,1.95 µg/mL,0.12 µg/mL
CN1CCN(c2ccc3nc(-c4ccc5nc(-c6ccc(OCCOCCO)cc6)[nH]c5c4)[nH]c3c2)CC1,> 31.2 µg/mL,> 31.2 µg/mL,> 31.2 µg/mL,> 31.2 µg/mL,> 31.2 µg/mL,7.8 µg/mL,> 31.2 µg/mL,31.2 µg/mL,> 31.2 µg/mL,> 31.2 µg/mL,> 31.2 µg/mL,> 31.2 µg/mL,> 31.2 µg/mL
